In one series the target is Cytochrome P450 3A4 (Homo sapiens, UniProt P08684). Briefly: Inhibition of recombinant CYP3A4 (unknown origin) using BFC substrate. The class given is ADME.
For series [1], the target named is T1, Nuclear receptor ROR-beta (Homo sapiens, UniProt Q92753).
T1 sequence (Q92753 whole entry): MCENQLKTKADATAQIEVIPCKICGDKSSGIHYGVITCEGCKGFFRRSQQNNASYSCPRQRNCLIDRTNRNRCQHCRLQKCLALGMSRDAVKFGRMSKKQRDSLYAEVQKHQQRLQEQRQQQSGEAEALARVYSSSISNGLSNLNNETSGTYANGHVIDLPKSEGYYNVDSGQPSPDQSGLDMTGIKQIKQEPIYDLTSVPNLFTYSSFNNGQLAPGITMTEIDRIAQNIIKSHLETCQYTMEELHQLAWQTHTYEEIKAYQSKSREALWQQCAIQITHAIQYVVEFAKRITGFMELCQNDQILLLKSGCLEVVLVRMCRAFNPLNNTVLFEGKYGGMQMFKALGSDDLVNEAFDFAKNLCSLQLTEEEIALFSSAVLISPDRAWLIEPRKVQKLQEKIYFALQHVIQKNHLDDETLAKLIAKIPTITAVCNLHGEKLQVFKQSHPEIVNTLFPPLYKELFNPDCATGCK
Briefly: Agonist activity at RORbeta (unknown origin) by Gal4-Luc reporter gene assay. A general note: In a reporter assay the amount or activity of a reporter protein is the signal.

The next series has as its target Cytochrome P450 2C19 (Homo sapiens, UniProt P33261). Kind of series: Inhibition of recombinant CYP2C19 (unknown origin). The class given is ADME.
Series [2] is described as follows: Total AUC in dog at 1 mg/kg, po. It counts as ADME, organism-based, Canis lupus familiaris. Set-up: dose 1 mg/kg, route oral, time AUCmax. Conditions: in vivo.
Series [3] in a line: Oral bioavailability in rat at 4 mg/kg. It counts as ADME, organism-based. Conditions: in vivo.
In another series the target is Cytochrome P450 2C9 (Homo sapiens, UniProt P11712). Kind of series: Inhibition of recombinant CYP2C9 (unknown origin). It counts as ADME.
A further series has as its target Cytochrome P450 2D6 (Homo sapiens, UniProt P10635). Kind of series: Inhibition of recombinant CYP2D6 (unknown origin). It counts as ADME.
Series [4] relates to Mus musculus. Briefly: Suppression of IL-17F RNA expression in skin region of mouse model of IL-23 induced acanthosis model of psoriasis at 3 mg/kg, po BID for 10 days measured every other day relative to control. The class given is functional. Conditions: 240 h.
A short description of series [5]: Cmax in dog at 1 mg/kg, po. The arrangement: dose 1 mg/kg, route oral. Conditions: in vivo. The class given is ADME, organism-based, Canis lupus familiaris.
Series [6] in a line: Cmax in mouse at 4 mg/kg, po. The class given is ADME, organism-based. Set-up: dose 4 mg/kg, route oral. Conditions: in vivo.
Series [7] concerns Mus musculus. Kind of series: Suppression of ear thickness in mouse model of IL-23 induced acanthosis model of psoriasis at 3 mg/kg, po BID for 10 days measured every other day relative to anti-IL-23 positive control. The class given is functional.
Series [8] can be described thus: Permeability across apical to basolateral side in human Caco2 cells. The class given is ADME, cell-based. As to conditions: Caco-2, read-out: permeability. (In general: Caco-2 monolayers are a common model of the intestinal barrier.)
Series [9] deals with Mus musculus. Kind of series: Suppression of IL-17F RNA expression in skin region of mouse model of IL-23 induced acanthosis model of psoriasis at 30 mg/kg, po BID for 10 days measured every other day relative to control. It counts as functional. As to conditions: 240 h.
The next series has as its target T2, Cytochrome P450 2C8 (Homo sapiens, UniProt P10632).
T2 sequence (P10632 whole entry): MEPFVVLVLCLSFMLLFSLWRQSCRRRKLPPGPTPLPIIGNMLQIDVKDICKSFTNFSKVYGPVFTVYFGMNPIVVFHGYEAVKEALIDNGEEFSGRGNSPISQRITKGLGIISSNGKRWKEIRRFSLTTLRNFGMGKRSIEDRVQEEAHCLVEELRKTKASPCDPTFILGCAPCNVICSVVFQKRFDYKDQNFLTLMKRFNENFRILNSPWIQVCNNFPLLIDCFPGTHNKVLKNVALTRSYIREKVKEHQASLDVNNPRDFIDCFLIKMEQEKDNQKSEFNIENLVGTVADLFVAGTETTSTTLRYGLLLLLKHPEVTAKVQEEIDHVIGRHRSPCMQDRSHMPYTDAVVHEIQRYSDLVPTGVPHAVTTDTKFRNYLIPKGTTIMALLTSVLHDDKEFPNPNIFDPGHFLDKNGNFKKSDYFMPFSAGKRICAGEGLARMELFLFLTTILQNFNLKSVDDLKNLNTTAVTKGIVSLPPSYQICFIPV
Briefly: Inhibition of recombinant CYP2C8 (unknown origin). The class given is ADME.

Series [10] in a line: Drug level in Balb/c mouse at 10 mg/kg, po after 24 hrs. Conditions: in vivo, read-out: Drug uptake. The class given is ADME, organism-based.
Series [11] relates to Mus musculus. Briefly: Suppression of ear thickness in mouse model of IL-23 induced acanthosis model of psoriasis at 30 mg/kg, po BID for 10 days measured every other day relative to control. Conditions: 240 h. The class given is functional.
The nature of series [12]: Half life in dog at 1 mg/kg, iv. It counts as ADME, organism-based, Canis lupus familiaris. Conditions: in vivo.
For series [13], the system named is Mus musculus. Briefly: Suppression of ear thickness in mouse model of IL-23 induced acanthosis model of psoriasis at 3 mg/kg, po BID for 10 days measured every other day relative to control. The class given is functional. As to conditions: 240 h.

Structures are written as SMILES.

Sequence of Cytochrome P450 2C9 (P11712 whole entry): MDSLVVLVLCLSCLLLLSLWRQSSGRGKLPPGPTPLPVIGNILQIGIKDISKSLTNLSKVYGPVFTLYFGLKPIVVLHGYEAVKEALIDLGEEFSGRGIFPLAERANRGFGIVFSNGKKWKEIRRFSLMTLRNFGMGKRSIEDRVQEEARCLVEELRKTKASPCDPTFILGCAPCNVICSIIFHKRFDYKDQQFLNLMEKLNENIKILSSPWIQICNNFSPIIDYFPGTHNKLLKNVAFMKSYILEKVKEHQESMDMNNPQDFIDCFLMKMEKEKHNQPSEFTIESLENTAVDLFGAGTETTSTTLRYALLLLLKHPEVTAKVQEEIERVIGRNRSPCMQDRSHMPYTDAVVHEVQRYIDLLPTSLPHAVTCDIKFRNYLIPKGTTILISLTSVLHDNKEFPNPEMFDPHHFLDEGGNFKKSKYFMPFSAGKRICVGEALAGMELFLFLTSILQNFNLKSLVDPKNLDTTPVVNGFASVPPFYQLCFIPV
Sequence of Cytochrome P450 3A4 (P08684 whole entry): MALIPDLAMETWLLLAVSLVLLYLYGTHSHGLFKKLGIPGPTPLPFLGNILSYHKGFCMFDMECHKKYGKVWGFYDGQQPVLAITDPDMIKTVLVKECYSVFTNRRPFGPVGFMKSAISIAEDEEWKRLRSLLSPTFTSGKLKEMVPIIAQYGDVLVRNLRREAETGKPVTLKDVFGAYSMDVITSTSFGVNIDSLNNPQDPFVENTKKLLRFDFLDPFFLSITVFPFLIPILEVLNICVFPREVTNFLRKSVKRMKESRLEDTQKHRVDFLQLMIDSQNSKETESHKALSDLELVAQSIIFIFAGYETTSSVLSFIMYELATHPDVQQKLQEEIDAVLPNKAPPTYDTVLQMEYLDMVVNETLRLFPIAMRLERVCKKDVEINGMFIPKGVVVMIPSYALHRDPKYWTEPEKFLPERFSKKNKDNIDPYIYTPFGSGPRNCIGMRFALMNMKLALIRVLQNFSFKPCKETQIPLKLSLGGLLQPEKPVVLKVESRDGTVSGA
Sequence of Cytochrome P450 2C19 (P33261 whole entry): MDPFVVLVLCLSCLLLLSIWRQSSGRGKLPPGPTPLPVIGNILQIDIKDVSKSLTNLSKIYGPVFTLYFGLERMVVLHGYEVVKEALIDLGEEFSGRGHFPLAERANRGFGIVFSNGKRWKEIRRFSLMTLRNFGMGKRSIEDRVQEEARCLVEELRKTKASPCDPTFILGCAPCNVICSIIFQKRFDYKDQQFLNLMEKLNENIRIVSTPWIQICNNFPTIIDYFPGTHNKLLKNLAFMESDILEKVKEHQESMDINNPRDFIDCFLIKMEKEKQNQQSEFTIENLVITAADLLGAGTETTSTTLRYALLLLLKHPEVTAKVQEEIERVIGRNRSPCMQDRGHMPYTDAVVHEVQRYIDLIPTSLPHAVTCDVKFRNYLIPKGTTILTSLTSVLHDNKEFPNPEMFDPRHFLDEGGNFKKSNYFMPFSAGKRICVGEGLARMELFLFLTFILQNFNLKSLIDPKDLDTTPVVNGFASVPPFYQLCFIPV
Sequence of Cytochrome P450 2D6 (P10635 whole entry): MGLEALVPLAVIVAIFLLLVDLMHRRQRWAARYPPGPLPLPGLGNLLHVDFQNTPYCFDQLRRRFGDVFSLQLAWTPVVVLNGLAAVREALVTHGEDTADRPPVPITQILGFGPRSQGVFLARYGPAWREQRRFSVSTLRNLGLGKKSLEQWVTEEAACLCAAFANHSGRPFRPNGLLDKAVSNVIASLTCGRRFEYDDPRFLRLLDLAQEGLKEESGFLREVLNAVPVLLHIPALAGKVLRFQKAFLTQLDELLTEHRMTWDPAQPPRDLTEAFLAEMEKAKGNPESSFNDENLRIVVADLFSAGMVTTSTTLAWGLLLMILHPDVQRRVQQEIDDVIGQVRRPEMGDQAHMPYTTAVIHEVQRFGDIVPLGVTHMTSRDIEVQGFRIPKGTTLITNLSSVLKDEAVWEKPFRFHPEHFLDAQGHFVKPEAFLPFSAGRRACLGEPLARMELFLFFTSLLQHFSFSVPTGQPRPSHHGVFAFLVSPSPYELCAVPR

`O=C(N1CC[C@@]2(S(=O)(=O)c3ccc(F)cc3)c3ccc(C(F)(C(F)(F)F)C(F)(F)F)cc3CC[C@@H]12)C1(O)CCS(=O)(=O)CC1`: the concentration for half-maximal inhibition (IC50) (as a rule, the midpoint of a concentration-inhibition curve) at Cytochrome P450 3A4 was above 20 µM; on Cytochrome P450 2C19, above 20 µM; on Cytochrome P450 2C9 it was 10 µM; on Cytochrome P450 2D6 it was above 20 µM; on Cytochrome P450 2C8 it was 15 µM. In series [1], the EC50 (as a rule, the concentration that produces a half-maximal response) is above 10 µM. The AUC – broadly, the area under the concentration-time curve, a measure of exposure – in series [2] came to 78 µM·h. For the same molecule, the bioavailability (as a rule, dose-corrected exposure relative to a reference, in per cent) in series [3] was determined as 50%. Moreover, the inhibition in vivo – broadly, the share of the control response that was lost under treatment – at 3 mg/kg in the series on Mus musculus [4] was 41%; in the series with Mus musculus [13], 28%. Also, the highest concentration (Cmax) (usually the maximum level reached in the sampled fluid or tissue) in series [5] was determined as 700 nM; in series [6], 2200 nM. Also, in the series on Mus musculus [7], the Efficacy is 48%. Besides, the Papp A→B in [8] was found to be 13 ×10⁻⁶ cm/s. The values for the inhibition in vivo at 30 mg/kg in the series with Mus musculus [9] and with Mus musculus [11] were 85% and 57%, respectively. Moreover, in series [10], the concentration at 24 h amounted to 1100 nM. In addition, the half-life (commonly how long it takes for the measured level to halve) in [12] was 87 h.

These data come from ChEMBL document CHEMBL4334512, “Rationally Designed, Conformationally Constrained Inverse Agonists of RORγt-Identification of a Potent, Selective Series with Biologic-Like in Vivo Efficacy” (J Med Chem, 2019).
